Tests used:
Format in all cases: in vivo
[1] = test system: Echinochloa oryzacola Vasing.; assay: Test Example 1: herbicidal activity, application before weed generation in submerged conditions (symbol A); conditions: application herbicide amount 320 g/ha
Method in brief: (§1)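 Application before weed emergence: an aqueous dilution of the emulsion formulation was poured onto the surface of 4 cm-deep floodwater on the day of sowing. Effect was judged after 3 weeks (greenhouse, 25–30 °C).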

Monochoria vaginalis = assay: Test Example 1: herbicidal activity, application before weed generation in submerged conditions (symbol C); conditions: application herbicide amount 320 g/ha
Method in brief: as §1

Leptochloa chinensis = assay: Test Example 3: herbicidal effect by foliage application, Wagner pot (symbol D); conditions: application herbicide amount 320 g/ha; for D (Leptochloa chinensis) herbicidal effect grade: Table 24
Method in brief: (§2)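 Foliar spray of a water-diluted emulsion at a predetermined herbicide amount, applied to 14-day-old plants. Seedlings were raised in flooded alluvial soil (0.1–0.5 cm water) at 25–30 °C in a greenhouse. Injury was rated after 3 weeks against fixed criteria.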

Cyperus difformis = assay: Test Example 3: herbicidal effect by foliage application, Wagner pot (symbol E); conditions: application herbicide amount 320 g/ha; for E herbicidal effect grade: Table 24
Method in brief: as §2

Lolium multiflorum Lam. = assay: Test Example 4: herbicidal effect by soil treatment (symbol K); conditions: for Herbicidal effect grade, K: Lolium multiflorum Lam.: application herbicide amount 320 g/ha
Method in brief: (§3)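 Seeds were sown in sterilized diluvial soil, covered with about 1.5 cm of soil, and the soil surface was sprayed with a water-diluted emulsion of the compound at a predetermined rate. Plants grew in a greenhouse at 25° C. to 30° C.; effects were scored visually 3 weeks after application.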

Amaranthus retroflexus = assay: Test Example 4: herbicidal effect by soil treatment (symbol N); conditions: for Herbicidal effect grade, N: Amaranthus retroflexus: application herbicide amount 320 g/ha
Method in brief: as §3

Chenopodium album [2] = assay: Test Example 4: herbicidal effect by soil treatment (symbol O); conditions: for Herbicidal effect grade, O: Chenopodium album: application herbicide amount 320 g/ha
Method in brief: as §3

rice = assay: Test Example 4: effect on crop by soil treatment (symbol b); conditions: for Effect on crop grade, b: directly sowed rice plant: application herbicide amount 320 g/ha
Method in brief: (§4)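 Plants are raised in a greenhouse (25° C. to 30° C.) from spot-sown seed, which sits under about 1.5 cm of sterilized diluvial soil in a box shared with weed species.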

wheat [3] = assay: Test Example 4: effect on crop by soil treatment (symbol e); conditions: for Effect on crop grade, e: wheat: application herbicide amount 320 g/ha
Method in brief: as §4

beet = assay: Test Example 4: effect on crop by soil treatment (symbol f); conditions: for Effect on crop grade, f: beet: application herbicide amount 320 g/ha
Method in brief: as §4

rapeseed = assay: Test Example 4: effect on crop by soil treatment (symbol g); conditions: for Effect on crop grade, g: rapeseed: application herbicide amount 320 g/ha
Method in brief: as §4

Avena fatua = assay: Test Example 5: herbicidal effect by foliage application, plastic box (symbol I); conditions: 320 g/ha, 3 weeks after application
Method in brief: (§5)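 Greenhouse foliar test: seedlings at 14 days, grown 25° C. to 30° C. in sterilized diluvial soil; compound applied as an aqueous dilution of an emulsion; response read 3 weeks after spraying.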

Apera spica-venti = assay: Test Example 5: herbicidal effect by foliage application, plastic box (symbol L); conditions: 320 g/ha, 3 weeks after application
Method in brief: as §5

Abutilon theophrasti = assay: Test Example 5: herbicidal effect by foliage application, plastic box (symbol M); conditions: 320 g/ha, 3 weeks after application
Method in brief: as §5

Chenopodium album [4] = assay: Test Example 5: herbicidal effect by foliage application, plastic box (symbol O); conditions: 320 g/ha, 3 weeks after application
Method in brief: as §5

Stellaria media = assay: Test Example 5: herbicidal effect by foliage application, plastic box (symbol P); conditions: 320 g/ha, 3 weeks after application
Method in brief: as §5

rice plant = assay: Test Example 5: effect on crop by foliage application, plastic box (symbol b); conditions: 320 g/ha, 3 weeks after application
Method in brief: (§6)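 Greenhouse test at 25° C. to 30° C. Seeds of crops and weeds were spot-sown in boxes of sterilized diluvial soil under roughly 1.5 cm soil cover, then grown for foliage treatment.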

wheat [5] = assay: Test Example 5: effect on crop by foliage application, plastic box (symbol e); conditions: 320 g/ha, 3 weeks after application
Method in brief: as §6

SMILES | A (Echinochloa oryzacola Vasing.) herbicidal effect grade [1] | C (Monochoria vaginalis) herbicidal effect grade (Monochoria vaginalis) | D (Leptochloa chinensis) herbicidal effect grade (Leptochloa chinensis) | E herbicidal effect grade (Cyperus difformis) | Herbicidal effect grade, K: Lolium multiflorum Lam. (Lolium multiflorum Lam.) | Herbicidal effect grade, N: Amaranthus retroflexus (Amaranthus retroflexus) | Herbicidal effect grade, O: Chenopodium album (Chenopodium album [2]) | Effect on crop grade, b: directly sowed rice plant (rice) | Effect on crop grade, e: wheat (wheat [3]) | Effect on crop grade, f: beet (beet) | Effect on crop grade, g: rapeseed (rapeseed) | I: Avena fatua, herbicidal effect grade (Avena fatua) | L: Apera spica-venti, herbicidal effect grade (Apera spica-venti) | M: Abutilon theophrasti, herbicidal effect grade (Abutilon theophrasti) | O: Chenopodium album, herbicidal effect grade (Chenopodium album [4]) | P: Stellaria media, herbicidal effect grade (Stellaria media) | b: directly sowed rice plant, effect on crop grade (rice plant) | e: wheat, effect on crop grade (wheat [5]) | other results
COCCON=C(CC1CC(O)=C(c2c(C)cc(-n3cc(Cl)cn3)cc2C)C1=O)C(C)C (stereo not drawn) [9-022] | 5 (Herbicidal ratio of 90% or more (almost completely withered)) | 0 (Herbicidal ratio of 5% or lower (almost no effect)) | 5 (Herbicidal ratio of 90% or more (almost completely withered)) | 5 (Herbicidal ratio of 90% or more (almost completely withered)) | 0 (Herbicidal ratio of 5% or lower (almost no effect)) | 0 (Herbicidal ratio of 5% or lower (almost no effect)) | 0 (Herbicidal ratio of 5% or lower (almost no effect)) | 4 (Herbicidal ratio of 70% or higher and lower than 90%) | 0 (Herbicidal ratio of 5% or lower (almost no effect)) | 0 (Herbicidal ratio of 5% or lower (almost no effect)) | 0 (Herbicidal ratio of 5% or lower (almost no effect)) | 0 (Herbicidal ratio of 5% or lower (almost no effect)) | 2 (Herbicidal ratio of 20% or higher and lower than 40%) | 0 (Herbicidal ratio of 5% or lower (almost no effect)) | 0 (Herbicidal ratio of 5% or lower (almost no effect)) | 0 (Herbicidal ratio of 5% or lower (almost no effect)) | 5 (Herbicidal ratio of 90% or more (almost completely withered)) | 0 (Herbicidal ratio of 5% or lower (almost no effect)) | 
CON=C(C)CC1CC(OC(=O)c2nsc(Cl)c2Cl)=C(c2c(C)cc(C)cc2C)C1=O (stereo not drawn) [1-099] |  |  |  |  |  |  |  |  |  |  |  |  |  |  |  |  |  |  | Herbicidal effect grade, A: Echinochloa oryzacola Vasing. [1]: 5 (Herbicidal ratio of 90% or more (almost completely withered)); Herbicidal effect grade, C: Monochoria vaginalis (Monochoria vaginalis): 2 (Herbicidal ratio of 20% or higher and lower than 40%); herbicidal effect on D (Leptochloa chinensis), grade 0-5 (Leptochloa chinensis): 5 (Herbicidal ratio of 90% or more (almost completely withered)); herbicidal effect on E, grade 0-5 (Cyperus difformis): 5 (Herbicidal ratio of 90% or more (almost completely withered)); K: Lolium multiflorum Lam., herbicidal effect grade (Lolium multiflorum Lam.; 320 g/ha): 5 (Herbicidal ratio of 90% or more (almost completely withered)); N: Amaranthus retroflexus, herbicidal effect grade (Amaranthus retroflexus; 320 g/ha): 3 (Herbicidal ratio of 40% or higher and lower than 70%); O: Chenopodium album, herbicidal effect grade (Chenopodium album [2]; 320 g/ha): 0 (Herbicidal ratio of 5% or lower (almost no effect)); b: directly sowed rice plant, effect grade on crop (rice; 320 g/ha): 5 (Herbicidal ratio of 90% or more (almost completely withered)); e: wheat, effect grade on crop (wheat [3]; 320 g/ha): 3 (Herbicidal ratio of 40% or higher and lower than 70%); f: beet, effect grade on crop (beet; 320 g/ha): 2 (Herbicidal ratio of 20% or higher and lower than 40%); g: rapeseed, effect grade on crop (rapeseed; 320 g/ha): 5 (Herbicidal ratio of 90% or more (almost completely withered)); I: Avena fatua, herbicidal effect (criteria 0-5) (Avena fatua): 5 (Herbicidal ratio of 90% or more (almost completely withered)); L: Apera spica-venti, herbicidal effect (criteria 0-5) (Apera spica-venti): 5 (Herbicidal ratio of 90% or more (almost completely withered)); M: Abutilon theophrasti, herbicidal effect (criteria 0-5) (Abutilon theophrasti): 4 (Herbicidal ratio of 70% or higher and lower than 90%); O: Chenopodium album, herbicidal effect (criteria 0-5) (Chenopodium album [4]): 3 (Herbicidal ratio of 40% or higher and lower than 70%); P: Stellaria media, herbicidal effect (criteria 0-5) (Stellaria media): 3 (Herbicidal ratio of 40% or higher and lower than 70%); b: directly sowed rice plant, effect on crop (criteria 0-5) (rice plant): 5 (Herbicidal ratio of 90% or more (almost completely withered)); e: wheat, effect on crop (criteria 0-5) (wheat [5]): 5 (Herbicidal ratio of 90% or more (almost completely withered))
CC#Cc1cc(C)c(C2=C(O)CC(CC(=NOCC(F)(F)F)C(C)C)C2=O)c(C)c1 (stereo not drawn) [9-015] | 5 (Herbicidal ratio of 90% or more (almost completely withered)) | 1 (Herbicidal ratio of 5% or higher and lower than 20%) | 5 (Herbicidal ratio of 90% or more (almost completely withered)) | 5 (Herbicidal ratio of 90% or more (almost completely withered)) | 5 (Herbicidal ratio of 90% or more (almost completely withered)) | 0 (Herbicidal ratio of 5% or lower (almost no effect)) | 0 (Herbicidal ratio of 5% or lower (almost no effect)) | 5 (Herbicidal ratio of 90% or more (almost completely withered)) | 3 (Herbicidal ratio of 40% or higher and lower than 70%) | 0 (Herbicidal ratio of 5% or lower (almost no effect)) | 0 (Herbicidal ratio of 5% or lower (almost no effect)) | 4 (Herbicidal ratio of 70% or higher and lower than 90%) | 5 (Herbicidal ratio of 90% or more (almost completely withered)) | 0 (Herbicidal ratio of 5% or lower (almost no effect)) | 3 (Herbicidal ratio of 40% or higher and lower than 70%) | 3 (Herbicidal ratio of 40% or higher and lower than 70%) | 5 (Herbicidal ratio of 90% or more (almost completely withered)) | 3 (Herbicidal ratio of 40% or higher and lower than 70%) | 
CC(CC1CC(O)=C(c2c(C)cc(-n3cc(Cl)cn3)cc2C)C1=O)=NOCC(F)(F)F (stereo not drawn) [9-010] | 5 (Herbicidal ratio of 90% or more (almost completely withered)) | 4 (Herbicidal ratio of 70% or higher and lower than 90%) | 5 (Herbicidal ratio of 90% or more (almost completely withered)) | 5 (Herbicidal ratio of 90% or more (almost completely withered)) | 5 (Herbicidal ratio of 90% or more (almost completely withered)) | 0 (Herbicidal ratio of 5% or lower (almost no effect)) | 0 (Herbicidal ratio of 5% or lower (almost no effect)) | 5 (Herbicidal ratio of 90% or more (almost completely withered)) | 0 (Herbicidal ratio of 5% or lower (almost no effect)) | 0 (Herbicidal ratio of 5% or lower (almost no effect)) | 0 (Herbicidal ratio of 5% or lower (almost no effect)) | 4 (Herbicidal ratio of 70% or higher and lower than 90%) | 5 (Herbicidal ratio of 90% or more (almost completely withered)) | 0 (Herbicidal ratio of 5% or lower (almost no effect)) | 3 (Herbicidal ratio of 40% or higher and lower than 70%) | 3 (Herbicidal ratio of 40% or higher and lower than 70%) | 5 (Herbicidal ratio of 90% or more (almost completely withered)) | 0 (Herbicidal ratio of 5% or lower (almost no effect)) | 

Reference: patent US11000033B2, “Ketone or oxime compound, and herbicide” (NISSAN CHEMICAL CORPORATION, priority 2014, dated 2021)
